Where a SMILES comes first, the peptide text is derived from it. Bridges are numbered along the chain shown (N, C = ends). [ ]: non-standard residue; d: D form. Orn = NCCC[C@H](N)C(=O)O; Mpa = O=C(O)CCS
Columns and labels:
Format in all cases: toxicity, cell-based
HEK-293T = test: Incucyte cell viability with HEK293T; details: human, 10 µM, compound concentration 10 uM
Fibroblast = test: Incucyte cell viability with human fibroblast; details: 10 µM, compound concentration 10 uM
U2OS = test: Incucyte cell viability with U2OS; details: human, 10 µM, compound concentration 10 uM
[1] = 0 h, replicate number 2, timepoint 0 hours
[2] = 6 h, replicate number 1, timepoint 6 hours
[3] = 12 h, replicate number 1, timepoint 12 hours
[4] = 18 h, replicate number 1, timepoint 18 hours
[5] = 18 h, replicate number 2, timepoint 18 hours
[6] = 24 h, replicate number 1, timepoint 24 hours
[7] = 0 h, replicate number 1, timepoint 0 hours
[8] = 6 h, replicate number 2, timepoint 6 hours
[9] = 12 h, replicate number 2, timepoint 12 hours
[10] = 24 h, replicate number 2, timepoint 24 hours
Further: unitless GR value; below 1 slowed growth and below 0 cell loss.

| SMILES | Growth Rate (HEK-293T; [2]) | Growth Rate (HEK-293T; [3]) | Growth Rate (HEK-293T; [4]) | Growth Rate (HEK-293T; [5]) | Growth Rate (HEK-293T; [6]) | Growth Rate (Fibroblast; [1]) | Growth Rate (Fibroblast; [2]) | Growth Rate (Fibroblast; [8]) | Growth Rate (Fibroblast; [3]) | Growth Rate (Fibroblast; [9]) | Growth Rate (Fibroblast; [4]) | Growth Rate (Fibroblast; [5]) | Growth Rate (Fibroblast; [6]) | Growth Rate (Fibroblast; [10]) | Growth Rate (U2OS; [7]) | Growth Rate (U2OS; [5]) | Growth Rate (HEK-293T; [9]) | Growth Rate (U2OS; [9]) | Growth Rate (U2OS; [4]) | Growth Rate (U2OS; [1]) | also measured |
| --- | --- | --- | --- | --- | --- | --- | --- | --- | --- | --- | --- | --- | --- | --- | --- | --- | --- | --- | --- | --- | --- |
| CCOc1c2c(c(OCC)c3ncccc13)CN(c1ccc(CS(=O)(=O)NC(=O)Cc3ccccc3OC)cc1C)C2=O | 0.48 | 0.83 | 0.9 | 1 | 0.87 | 0.58 | 0.32 | -0.34 | 0.49 | -0.12 | 0.23 | -0.18 | -0.06 | -0.4 | -0.69 | 1 |  |  |  |  | Growth Rate (HEK-293T; [1]): 0.82; Growth Rate (Fibroblast; [7]): 0.27; Growth Rate (U2OS; [8]): 0.75 |
| O=C1COc2nccc(-c3ccccc3F)c2CN1Cc1cc(C(F)(F)F)cc(C(F)(F)F)c1 |  |  | 0.98 | 0.88 |  |  | 0.17 |  | 0.8 |  | 0.58 |  | 0.73 |  | -0.7 | 0.94 | 0.89 | 0.96 | 0.97 |  | Growth Rate (HEK-293T; [8]): 0.77; Growth Rate (U2OS; [6]): 0.88; Growth Rate (U2OS; [10]): 0.93 |
| O=C(NC[C@@H]1[C@H]2CN(C(=O)OCc3cc(C(F)(F)F)cc(C(F)(F)F)c3)C[C@@H]12)c1ccc2[nH]nnc2c1 [BI 2545] | 0.33 | 0.61 | 0.65 |  | 0.64 |  | -0.83 | -0.59 | -0.64 | -0.1 | -0.55 | 0.22 | -0.35 | 0.57 |  |  | 0.92 |  | 0.99 | 0.37 | Growth Rate (HEK-293T; [8]): 0.67; Growth Rate (HEK-293T; [10]): 0.88; Growth Rate (U2OS; [3]): 0.93 |
| CCCCNNC(=O)c1ccc(Br)cc1 |  | 0.93 |  |  |  | 0.26 | -0.07 | 0.86 | 0.37 |  | 0.74 | 0.93 | 0.99 | 0.91 |  |  | 0.77 | 0.99 | 0.94 | -0.23 | Growth Rate (HEK-293T; [7]): 0.97; Growth Rate (HEK-293T; [1]): 0.79; Growth Rate (Fibroblast; [7]): 0.73; Growth Rate (U2OS; [10]): 0.91 |
| CCOc1ccc(C[C@H]2NC(=O)CCSSC[C@@H](C(=O)N3CCC[C@H]3C(=O)N[C@@H](CCCN)C(=O)NCC(N)=O)NC(=O)[C@H](CC(N)=O)NC(=O)[C@H]([C@@H](C)O)NC(=O)[C@H]([C@@H](C)CC)NC2=O)cc1 [ATOSIBAN] ([Mpa][dY](Et)ITNCP[Orn]G-NH2; disulfide 1-6) |  |  |  | 0.78 |  | 0.42 |  | 0.56 | 0.64 | 0.4 |  |  |  |  |  | 0.89 | 0.83 | 0.97 | 0.79 | -1 | Growth Rate (HEK-293T; [7]): 0.87; Growth Rate (HEK-293T; [8]): 0.92; Growth Rate (HEK-293T; [10]): 0.7; Growth Rate (Fibroblast; [7]): 0.49; Growth Rate (U2OS; [8]): 0.76 |
| CCOC(=O)Nc1cc(-c2ccc(C)c(NS(C)(=O)=O)c2)nn2c(C)nnc12 |  | 0.95 | 0.79 | 0.98 | 0.46 | 0.22 | -0.16 |  |  |  |  |  |  | 0.95 | 0.25 | 0.95 |  | 0.95 | 0.82 |  | Growth Rate (HEK-293T; [7]): 0.65; Growth Rate (HEK-293T; [1]): 0.66; Growth Rate (HEK-293T; [10]): 0.76; Growth Rate (U2OS; [2]): 0.15; Growth Rate (U2OS; [8]): 0.59; Growth Rate (U2OS; [3]): 0.56; Growth Rate (U2OS; [6]): 0.83; Growth Rate (U2OS; [10]): 0.84 |
| CN(CCN1CCC(OC(=O)Nc2ccccc2-c2ccccc2)CC1)C(=O)c1ccc(CN2CCC(C(N)=O)CC2)cc1 [REVEFENACIN] | 0.97 | 0.95 | 0.98 | 0.74 | 0.9 | 0.62 |  | 0.71 | 0.73 | 0.65 | 0.65 | 0.9 | 0.56 | 0.97 | 0.88 |  | 0.59 |  |  | 0.11 | Growth Rate (HEK-293T; [10]): 0.78 |
| CC(C)n1cnc2c(Nc3cccc(Cl)c3)nc(N[C@H]3CCCC[C@@H]3N)nc21 | -0.84 | -0.51 | -0.35 | -0.48 | -0.25 |  | 0.31 | -0.31 | 0.73 | 0.36 | 0.33 |  | 0.41 |  |  | -0.02 | -0.69 | 0.04 | 0.03 |  | Growth Rate (HEK-293T; [8]): -0.89; Growth Rate (HEK-293T; [10]): -0.39; Growth Rate (U2OS; [2]): -0.04; Growth Rate (U2OS; [8]): 0.4; Growth Rate (U2OS; [3]): -0.12; Growth Rate (U2OS; [6]): 0.06; Growth Rate (U2OS; [10]): 0.05 |
| CC1(C)SSC(C)(C)[C@@H](NC(=O)[C@@H](N)Cc2ccc(O)cc2)C(=O)NCC(=O)N[C@@H](Cc2ccccc2)C(=O)N[C@H]1C(=O)O.O=C(O)C(F)(F)F | 0.73 |  | 0.85 |  |  | 0.08 | 0.67 |  |  |  |  |  | 0.94 |  |  | 0.98 | 0.85 |  |  | -0.57 | Growth Rate (HEK-293T; [7]): 0.77; Growth Rate (Fibroblast; [7]): 0.24; Growth Rate (U2OS; [8]): 0.94; Growth Rate (U2OS; [10]): 0.94 |
| CC(C)c1noc(N2CCC(COc3ccc(-c4ccc(S(C)(=O)=O)cc4)nc3)CC2)n1 [GSK-1292263] | -0.15 | 0.09 | 0.14 | 0.41 | 0.22 | 0.61 |  | -0.06 |  | 0.41 | 0.53 | 0.76 |  |  | -0.92 | 0.85 | 0.17 | 0.96 | 0.91 | -0.96 | Growth Rate (HEK-293T; [8]): -0.07; Growth Rate (HEK-293T; [10]): 0.55; Growth Rate (Fibroblast; [7]): -0.57 |
| COc1c(C)cc(NC(=O)c2nn(Cc3ccc(F)cc3)c3c2CN(C(=O)c2ccc[nH]2)C[C@]3(C)C(N)=O)cc1C | 0.35 | 0.13 | 0.11 |  | 0.15 | 0.51 | -0.71 | 0.46 | -0.33 | 0.15 | -0.18 | 0.32 | -0.31 | 0.29 | -0.69 | 0.66 |  | 0.68 | 0.61 | -0.16 | Growth Rate (HEK-293T; [7]): 0.79; Growth Rate (Fibroblast; [7]): 0.8; Growth Rate (U2OS; [2]): 0.56; Growth Rate (U2OS; [8]): 0.73; Growth Rate (U2OS; [3]): 0.56; Growth Rate (U2OS; [6]): 0.61; Growth Rate (U2OS; [10]): 0.67 |
| CNC(=O)c1nn(C)c2c1C(C)(C)Cc1cnc(Nc3ccc(N4CCN(C)CC4)cc3)nc1-2 [MILCICLIB] | -0.57 | -0.22 | -0.12 | -0.15 | -0.02 | 1 | -0.13 | -0.21 | -0.1 | -0.07 | 0.24 | 0.23 | 0.34 | 0.33 | -0.33 | 0.38 | -0.34 | 0.29 | 0.23 |  | Growth Rate (HEK-293T; [8]): -0.72; Growth Rate (HEK-293T; [10]): -0.01; Growth Rate (U2OS; [2]): 0.35; Growth Rate (U2OS; [8]): 0.23; Growth Rate (U2OS; [3]): 0.17; Growth Rate (U2OS; [6]): 0.21; Growth Rate (U2OS; [10]): 0.25 |
| COc1cc(C(=O)N2CC[C@@H](O)[C@@H](N)C2)cc2nc(-c3cc4ccccc4n3CC3CC3)n(C)c12.Cl | 0.71 | 0.85 | 0.88 |  | 0.77 |  | -0.98 | -0.57 | -0.8 | -0.18 | -0.63 | -0.01 | -0.52 | 0.15 | -0.04 | 0.99 |  | 0.98 |  | 0.15 | Growth Rate (U2OS; [2]): 0.61 |

From ChEMBL document CHEMBL5058564, “EUbOPEN Chemogenomics Library 2 (Incucyte)” (2022)
